Results reported in PMC5896380, “Selective imaging of cathepsin L in breast cancer by fluorescent activity-based probes” (Chemical Science, 2018).

Assays:
cathepsin V = biological target: T1, cathepsin V (Homo sapiens, UniProt O60911); test: kobs/I of activity-based probes, cathepsin V; type: biochemical; details: Fig. 6A; pseudo-first order, probe at least 5-fold excess over cathepsin, 100 μM ACC substrate; pH 5.5, 37 °C; triplicate, SD below 20%
T1 construct: made in house
Procedure: (§1) All kinetic experiments were performed using fMax (Molecular Devices) and CLARIOStar (BMG LABTECH) spectrofluorimeters operating in kinetic mode using 96-well plates. ACC-labeled substrates were screened using 355 nm and 460 nm wavelengths (excitation and emission, respectively). […] The buffer was prepared at room temperature and the enzyme kinetic studies were performed at 37 °C.
(§2) For the kinetic studies, five recombinant human cathepsins (B, L, V, K and S) were expressed and purified and active site titrated using an E64 inhibitor. The kobs/I parameter was measured under pseudo-first order kinetic conditions, as described.[40] The cathepsin of interest was mixed with various concentrations of probe (at least 5-fold excess over cathepsin) and 100 μM ACC-fluorescence substrate. The experiments were repeated at least three times, and the results are presented as an average. The SDs were below 20%.

[1] = tested on: cathepsins L, V, B, S and K; test: Labeling of recombinant cathepsins by Cy5 probes, SDS-PAGE; type: biochemical, human; details: cathepsins 10 nM or 100 nM, probe/enzyme ratio 0.2, 1, 5 and 25, 30 min, Cy5 scan
Procedure: In experiment A, the probe concentrations were 2 nM, 10 nM, 50 nM and 250 nM, while in experiment B the probe concentrations were 20 nM, 100 nM, 500 nM and 2.5 μM. The reaction volume for all the samples was 200 μL. After 30 min, 100 μL of 3× SDS/DTT was added to the reaction mixtures, the samples were boiled for 5 min, and then 20 μL of the sample was run on 4–12% Bis-Tris Plus 15-well gels for 30 min at 200 V with 2 μL of PageRuler™ Prestained Protein Ladder. The gels were then directly scanned at 700 nm (red channel for Cy5 detection; excitation 685 nm) using an Odyssey fluorescence imaging system (LI-COR) and the images were analyzed using Image Studio software.

cathepsin K = biological target: T2, cathepsin K (Homo sapiens, UniProt P43235); test: kobs/I of activity-based probes, cathepsin K; type: biochemical; details: Fig. 6A; pseudo-first order, probe at least 5-fold excess over cathepsin, 100 μM ACC substrate; pH 5.5, 37 °C; triplicate, SD below 20%
T2 construct: made in house
T2 sequence (P43235 115-329): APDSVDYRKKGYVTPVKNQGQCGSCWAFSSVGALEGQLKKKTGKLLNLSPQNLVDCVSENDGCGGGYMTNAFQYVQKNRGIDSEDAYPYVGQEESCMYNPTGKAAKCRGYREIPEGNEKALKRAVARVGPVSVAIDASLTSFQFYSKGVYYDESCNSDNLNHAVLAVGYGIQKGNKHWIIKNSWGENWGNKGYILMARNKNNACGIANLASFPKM
Procedure: as §1, §2

[2] = tested on: cathepsins L and B in HEK293T cells; test: Cathepsin labeling by Cy5 probes in HEK293T cells, immunoblotting; type: cell-based, human; details: 1 μM probe, 0–18 hours
Procedure: Figure S3 Cathepsins labeling by two Cy5-tagged probes in HEK293T cells. Panel A. Cells (100,000/well/mL) were incubated with MP-cL3 (1µM) probe for 0-18 hours. Next, cells were harvested and subjected for Western blotting. MP-cL3 probe is very selective toward cathepsin L even after 18 hours of incubation (only residual cathepsin B activity is detected).
MDA-MB-231, thus mostly heavy chain of cathepsin L is labeled. Panel B and Panel C. Cells (100,000/well/mL) were incubated with pan-specific MP-pc1 (1µ M) probe for 0-18 hours. Next, cells were harvested and subjected […]
(1 picture or pasted object on this page, not shown here)

cathepsin B = biological target: T3, cathepsin B (Homo sapiens, UniProt P07858); test: kobs/I of activity-based probes, cathepsin B; type: biochemical; details: Fig. 6A; pseudo-first order, probe at least 5-fold excess over cathepsin, 100 μM ACC substrate; pH 5.5, 37 °C; triplicate, SD below 20%
T3 construct: made in house
Procedure: as §1, §2

T1 sequence (O60911 114-334): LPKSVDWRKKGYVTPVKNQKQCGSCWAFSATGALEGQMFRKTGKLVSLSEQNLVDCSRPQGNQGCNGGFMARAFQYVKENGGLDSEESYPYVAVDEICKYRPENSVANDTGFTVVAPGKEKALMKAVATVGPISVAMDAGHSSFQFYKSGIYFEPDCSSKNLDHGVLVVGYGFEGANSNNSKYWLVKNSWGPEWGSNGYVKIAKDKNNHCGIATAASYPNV

- kobs/I Cath-V (cathepsin V): 380 M⁻¹ s⁻¹
- kobs/I Cath-K (cathepsin K): < 200 M⁻¹ s⁻¹
- kobs/I Cath-B (cathepsin B): 780 M⁻¹ s⁻¹
Substance: Cy5-6-ahx-His-DThr-Phe(F5)-Cys(Bzl)-AOMK [MP-cL3]
- labeling of recombinant cathepsins L, V, B, S and K [1]: very high degree of selectivity
- cathepsins labeled in HEK293T cells [2]: bound only cathepsin L
